# In publication PMC9854728, “Synthesis and Antioxidant Properties of Novel 1,2,3-Triazole-Containing Nitrones” (Antioxidants, 2022):
# Where two headings read alike, the source gives them in different places.
# Key:
# [1] = biological target: T1, soybean lipoxygenase (LOX) (Glycine max, UniProt P08170); test: In vitro inhibition of soybean lipoxygenase (LOX); assay type: biochemical; details: for inhibition at 100 µM / LOX Inhibition (%): tested at 100 µM, no = no activity under the experimental conditions; for LOX Inhibition (%): 100 µM
# T1 construct: purchased Aldrich Chemical Co. (Milwaukee, WI, USA)
# T1 sequence (P08170 1-839): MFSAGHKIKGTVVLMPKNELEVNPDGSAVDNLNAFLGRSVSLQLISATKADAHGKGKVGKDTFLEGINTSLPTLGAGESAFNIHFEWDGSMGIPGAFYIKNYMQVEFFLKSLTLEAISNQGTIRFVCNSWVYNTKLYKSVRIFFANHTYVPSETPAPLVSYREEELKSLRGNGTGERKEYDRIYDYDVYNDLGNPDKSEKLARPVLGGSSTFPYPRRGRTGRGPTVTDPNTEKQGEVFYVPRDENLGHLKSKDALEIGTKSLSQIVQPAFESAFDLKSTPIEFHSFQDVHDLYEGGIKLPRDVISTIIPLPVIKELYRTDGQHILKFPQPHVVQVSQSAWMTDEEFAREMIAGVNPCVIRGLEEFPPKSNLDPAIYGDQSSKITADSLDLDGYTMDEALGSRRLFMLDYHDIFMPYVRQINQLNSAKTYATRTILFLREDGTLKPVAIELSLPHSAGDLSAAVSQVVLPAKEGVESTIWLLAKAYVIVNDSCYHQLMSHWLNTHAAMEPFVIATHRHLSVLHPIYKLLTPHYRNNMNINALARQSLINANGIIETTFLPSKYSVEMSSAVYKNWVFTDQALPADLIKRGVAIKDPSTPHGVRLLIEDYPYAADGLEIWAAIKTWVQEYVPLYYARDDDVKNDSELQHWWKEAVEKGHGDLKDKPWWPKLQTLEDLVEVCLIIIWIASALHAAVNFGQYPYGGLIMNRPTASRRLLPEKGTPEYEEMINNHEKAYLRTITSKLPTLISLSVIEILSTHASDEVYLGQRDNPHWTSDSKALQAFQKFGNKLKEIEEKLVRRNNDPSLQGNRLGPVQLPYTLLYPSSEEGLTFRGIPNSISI
# Description: The in vitro antioxidant assays for nitrones 8 and 9 were performed concentrations of 100 µM (from a stock solution 10 mM in 0.1% DMSO in deionized water). Several dilutions were made when the determination of IC50 values was needed. […] The nitrones were diluted under sonification in the appropriate buffer in several dilutions (Table 1).
# The in vitro study was evaluated as reported previously. Compounds 8a–f or 9a–f (10 μL) were incubated at rt with sodium linoleate (0.1 mM) and 200 μL of enzyme solution (1/9 × 10^–4 w/v in saline). Tris buffer pH 9 was inserted. The conversion of sodium linoleate to 13-hydroperoxylinoleic acid was recorded at 234 nm. […] Several dilutions of compounds were used for the determination of IC50 values. Blank determination served as the negative control.
# [2] = Inhibition of linoleic acid peroxidation (ILP) induced by AAPH; details: tested at 100 µM, 37 °C
# Description: (§1) The in vitro antioxidant assays for nitrones 8 and 9 were performed concentrations of 100 µM (from a stock solution 10 mM in 0.1% DMSO in deionized water). Several dilutions were made when the determination of IC50 values was needed. All the determinations were made, at least in triplicate, and the standard deviation of absorbance was less than 10% of the mean. The nitrones were diluted under sonification in the appropriate buffer in several dilutions (Table 1).
# The production of conjugated diene hydroperoxide by the oxidation of linoleate sodium 16 mM linoleate sodium (10 µL) in an aqueous solution is monitored at 234 nm. AAPH 40 mM (50 µL) is used as a free radical initiator at 37 °C under air conditions, followed by the tested nitrones. This assay can be used to follow oxidative changes by recording the absorbance values at 234 nm, using Trolox as a reference compound. The experimental procedure follows our previously reported protocol.
# [3] = Competition with DMSO for hydroxyl radicals; details: tested at 100 µM, Fe3+/ascorbic acid system, 37 °C, 30 min; no = no activity
# Description: as §1
# The hydroxyl radicals, produced by the Fe^3+/ascorbic acid system, were detected by the determination of formaldehyde produced from the oxidation of DMSO [8]. Solutions of EDTA (0.1 mM), Fe^3+ (167 μM), DMSO (33 mM) in phosphate buffer (50 mM, pH 7.4), as well as the tested compounds (10 μL final concentration 100 μM) and ascorbic acid (10 mM) were mixed in test tubes and incubated at 37 °C for 30 min. The reaction was stopped by adding CCl3COOH (17% w/v), and the % competition activity of the nitrones 8 and 9 with DMSO for hydroxyl radicals was calculated. Trolox was used as a positive control.
# [4] = ABTS radical cation decolorization assay; details: tested at 100 µM, 1 min, 734 nm; no = no activity
# Description: as §1
# ABTS stock solution in water (7 mM) was mixed with potassium persulfate (2.45 mM) and left in the dark at rt for 12–16 h before use, followed by the production of the ABTS radical cation (ABTS^+·). The assay was performed as described previously. The results were recorded after 1 min of the mixing solutions at 734 nm. Trolox was used as a positive control.
# [5] = soybean LOX, sodium linoleate 0.1 mM, Tris buffer pH 9, read-out: LOX Inhibition IC50
structure (smiles),measurement,setting,value
"CC(C)(C)[N+]([O-])=CCn1cc(-c2ccc(F)cc2F)nn1 [Nitrone 9e, N-(2-(4-(2,4-Difluorophenyl)-1H-1,2,3-Triazol-1-yl)Ethylidene)-2-Methylpropan-2-Amine Oxide]",LOX Inhibition IC50,"[1]; soybean LOX, sodium linoleate 0.1 mM, Tris buffer pH 9",equipotent to the 9d
same,IC50,[1]; [5],100 µM
same,ILP (%),[2],100%
same,Scavenging Activity for HO• (%),[3],100%
same,ABTS+• (%),[4],no
same,melting point,,122 to 123 °C
"CC(C)(C)[N+]([O-])=CCn1cc(-c2ccc(F)cc2)nn1 [Nitrone 9d, N-(2-(4-(4-Fluorophenyl)-1H-1,2,3-Triazol-1-yl)Ethylidene)-2-Methylpropan-2-Amine Oxide]",IC50,[1]; [5],100 µM
same,Scavenging Activity for HO• (%),[3],99%
same,ABTS+• (%),[4],no
same,melting point,,128 to 131 °C
"C[N+]([O-])=CCn1cc(-c2ccccc2)nn1 [Nitrone 8a, N-(2-(4-Phenyl-1H-1,2,3-Triazol-1-yl)Ethylidene)Methanamine Oxide]",IC50,[1]; [5],37.5 µM
same,ILP (%),[2],48.4%
same,Scavenging Activity for HO• (%),[3],93%
same,ABTS+• (%),[4],14%
same,melting point,,97 to 98 °C
"C[N+]([O-])=CCn1cc(-c2ccccc2F)nn1 [Nitrone 8b, N-(2-(4-(2-Fluorophenyl)-1H-1,2,3-Triazol-1-yl)Ethylidene)Methanamine Oxide]",inhibition at 100 µM,[1],24%
same,ILP (%),[2],2%
same,Scavenging Activity for HO• (%),[3],61%
same,ABTS+• (%),[4],13%
same,melting point,,125 to 126 °C
"Cc1cc(-c2cn(CC=[N+](C)[O-])nn2)ccc1F [Nitrone 8f, N-(2-(4-(4-Fluoro-3-Methylphenyl)-1H-1,2,3-Triazol-1-yl)Ethylidene)Methanamine Oxide]",inhibition at 100 µM,[1],44%
same,ILP (%),[2],41%
same,Scavenging Activity for HO• (%),[3],91.5%
same,ABTS+• (%),[4],34.3%
same,melting point,,171 to 173 °C
"CC(C)(C)[N+]([O-])=CCn1cc(-c2cccc(F)c2)nn1 [Nitrone 9c, N-(2-(4-(3-Fluorophenyl)-1H-1,2,3-Triazol-1-yl)Ethylidene)-2-Methylpropan-2-Amine Oxide]",LOX Inhibition (%),[1],no inhibition and no
same,Scavenging Activity for HO• (%),[3],89%
same,ABTS+• (%),[4],no
same,melting point,,94 to 95 °C
"CC(C)(C)[N+]([O-])=CCn1cc(-c2ccccc2)nn1 [Nitrone 9a, 2-Methyl-N-(2-(4-Phenyl-1H-1,2,3-Triazol-1-yl)Ethylidene)Propan-2-Amine Oxide]",inhibition at 100 µM,[1],44%
same,ILP (%),[2],74.5%
same,Scavenging Activity for HO• (%),[3],76%
same,ABTS+• (%),[4],4%
same,melting point,,91 to 93 °C
"CC(C)(C)[N+]([O-])=CCn1cc(-c2ccccc2F)nn1 [Nitrone 9b, N-(2-(4-(2-Fluorophenyl)-1H-1,2,3-Triazol-1-yl)Ethylidene)-2-Methylpropan-2-Amine Oxide]",IC50,[1]; [5],40 µM
same,ILP (%),[2],73%
same,Scavenging Activity for HO• (%),[3],76%
same,ABTS+• (%),[4],no
same,melting point,,72 to 73 °C
"C[N+]([O-])=CCn1cc(-c2ccc(F)cc2F)nn1 [Nitrone 8e, N-(2-(4-(2,4-Difluorophenyl)-1H-1,2,3-Triazol-1-yl)Ethylidene)Methanamine Oxide]",IC50,[1],87.5 µM
same,ILP (%),[2],87%
same,Scavenging Activity for HO• (%),[3],76%
same,ABTS+• (%),[4],no
same,melting point,,122 to 123 °C
"C[N+]([O-])=CCn1cc(-c2cccc(F)c2)nn1 [Nitrone 8c, N-(2-(4-(3-Fluorophenyl)-1H-1,2,3-Triazol-1-yl)Ethylidene)Methanamine Oxide]",inhibition at 100 µM,[1],40%
same,ILP (%),[2],65%
same,Scavenging Activity for HO• (%),[3],59%
same,ABTS+• (%),[4],no
same,melting point,,158 to 160 °C
"Cc1c(C)c2c(c(C)c1O)CCC(C)(C(=O)O)O2 (stereo not drawn) [Trolox, reference compound]",ILP (%),[2],93%
same,Scavenging Activity for HO• (%),[3],88%
same,ABTS+• (%),[4],91%
"Cc1cc(-c2cn(CC=[N+]([O-])C(C)(C)C)nn2)ccc1F [Nitrone 9f, N-(2-(4-(4-Fluoro-3-Methylphenyl)-1H-1,2,3-Triazol-1-yl)Ethylidene)-2-Methylpropan-2-Amine Oxide]","LOX inhibition, fold less potent than NDGA",[1]; IC50 27 μM vs NDGA […],60 fold
same,IC50,[1]; [5],27 µM
same,ILP (%),[2],87%
same,Scavenging Activity for HO• (%),[3],99.9%
same,ABTS+• (%),[4],16%
same,melting point,,104 to 107 °C
"CC(C)(C)/[N+]([O-])=C/c1ccccc1 [PBN, (Z)-N-tert-butyl-1-phenylmethanimine oxide, reference compound]",ILP (%),[2],11%
same,Scavenging Activity for HO• (%),[3],no
same,ABTS+• (%),[4],5%
"C[N+]([O-])=CCn1cc(-c2ccc(F)cc2)nn1 [Nitrone 8d, N-(2-(4-(4-Fluorophenyl)-1H-1,2,3-Triazol-1-yl)Ethylidene)Methanamine Oxide]",LOX Inhibition (%),[1],loses its activity and no
same,ILP (%),[2],54%
same,Scavenging Activity for HO• (%),[3],80%
same,ABTS+• (%),[4],5.3%
same,melting point,,165 to 167 °C
